The source of these data is patent US20200283728A1, “MODIFIED T CELLS AND USES THEREOF” (MUSC FOUNDATION FOR RESEARCH DEVELOPMENT, priority 2017, published 2020).

The subject of test [1] is pmel-1 CD8^+ T cells. The test is described as follows: pmel-1 CD8+ T cells primed with AKTi or CAL-101 in culture: phenotype and expansion. Type of test: cell-based, mouse. Here is the method:
(§1) Pmel-1 CD8^+ T cells were prepared from whole splenocytes activated using 1 μM hgp100 peptide+100 IU rhIL-2/mL. Starting 3 hours after initial activation, cells were treated with either DMSO vehicle, AKT inhibitor VIII (AKTi) (Calbiochem), or CAL-101 (Selleckchem) at indicated doses. Cells were supplemented with culture media containing 100 IU rhIL-2/mL and vehicle or drug when expanded. Human Normal Donor Peripheral T cells: Polyclonal CD3^+ T cells were prepared via negative bead selection (Dynal) from peripheral blood lymphocytes and activated using CD3/CD28 beads (Gibco) with 100 IU rhIL-2/mL DMSO vehicle, 1 μM or 10 μM AKTi or CAL-101 throughout culture as indicated. On day 2 of culture, T cells were engineered to be mesothelin specific via lentiviral transduction with an anti-mesothelin chimeric antigen receptor (CAR) which contained a single-chain variable fragment (scFv) fusion protein specific for mesothelin and linked to the T cell receptor ζ (TCRζ) signaling domain and 4-1BB as described previously (Carpenito et al., 2009) (gifts from the June lab).
(§2) Surface staining of Th17 cells was performed with anti-CD4-APCCy7, anti-Vβ14-FITC (BD Biosciences) anti-CD62L-APC, anti-CD44-PerCPCy5.5, anti-CCR6-PE, anti-CD69-PECy7, anti-CCR7-PE, anti-CD27-PE, anti-CD28-PerCPCy5.5, anti-ICOS-PE and anti-CD25-PECy7/FITC (BioLegend) and viability stain (Invitrogen) on day 8. For all intracellular staining of cytokines (anti-IL-17 PerCPCy5.5, anti-IFN-γ-v450, anti-IL-2-FITC, anti-IL-21-APC, anti-IL-22-PE, anti-TNF-α-FITC; BioLegend) and transcription factors (anti-RORγt-APC, anti-cMaf-PerCPCy5.5, anti-STAT-3-PE, anti-FoxP3-FITC/PE, anti-T-bet-v450; eBiosciences), cells were stimulated for 4-5 h with 50 ng/mL PMA and 750 ng/mL ionomycin (Sigma-Aldrich). Additional antibodies used include: CD127-PECy7 clone A019D5, CD25-APCCy7 clone BC96, CD4-APCCy7 OKT4, CD45RO-APC clone UCHL1, CD62L-FITC clone DREG-56, CD8-PerCPCy5.5 clone SKI, TIM3-PE clone F38-2E2 (biolegend); CCR7-PECy7 clone CCR7, CD8-V450 clone RPA-T8, PD1-FITC clone M1H4, (BD Biosciences). Antibodies used for mouse cell analysis: CD127-PE/V450 clone A7R34, CD25-FITC clone 7D4, CD44-PerCPCy5.5/FITC clone IM7, CD69-PECy7 clone HI.2F3, CD8-PerCPCy5.5 clone 53-6.7, CD8-PECy7 clone YTS156.7.7, PD1-PerCPCy5.5 clone 29F.1A12 V[…]13-PE/APC clone MR12-3/MR12-4 (Biolegend), CD4-APCCy7 clone RM4-5, CD62L-APC clone MEL-14, KLRG1-APC/V450 clone 2F1 (BD). After 1 h, Monensin (BioLegend) was added per manufacturer's instructions. After surface staining, intracellular staining for cytokines and transcription factors was performed using Fixation and Permeabilization buffers (BioLegend) and Foxp3 Staining Buffers (eBioscience), respectively. Flow cytometry acquisition was performed on a FACSVerse or Accuri (BD Bioscience). Data were analyzed with FlowJo software (TreeStar). For experiments with sorted cells, CD8^+Vb13^+ T cells were sorted from pmel-1 cultures using Dynabeads untouched mouse CD8^+ T cell kit (Invitrogen) and a FACSAria cell sorting machine (BD Biosciences).

In test [2] the test system is human CD3^+ T cells. The test is described as follows: Human CD3+ T cells expanded with CD3/CD28 beads under CAL-101 or AKTi. Type of test: cell-based. Here is the method: as §1, §2
Test [3] concerns human T cells. Briefly: RNA sequencing of CAL-101 or AKTi treated human T cells. Type of test: cell-based. The settings on record: vs vehicle. Here is the method:
Library preparation: mRNA libraries were prepared in triplicate from each donor using the TruSeq RNA V2 kit(Illumina). Cleaved RNA fragments were copied into first strand cDNA then underwent second strand cDNA synthesis. End repair of cDNA fragments, single ‘A’ base addition and ligation to the adapter followed. The product was then purified and enriched with PCR to create the final cDNA library. Transcriptome sequencing: cDNA libraries were clonally clustered onto the sequencing flow cell using the c-BOT (Illumina) Cluster Generation Station and Hiseq Rapid Paired-End Cluster Kit v2 (Illumina). Clustered flow cells were sequenced on the Illumina HiSeq2500 Sequencing System using the Hiseq Rapid SBS Kit V2 (Illumina). Analysis: Differential gene expression analysis contrasting the factors representing different treatment protocols (CAL101 vs Vehicle; or AKTi vs Vehicle) was performed by running kallisto on the raw paired-end RNA sequencing data (in FASTQ format) to estimate transcript-level read counts based on Ensembl GRCh37 cDNA assembly for each sample (NCBI GEO database Accession Number: GSE101497). Estimated transcript-level counts were aggregated across official gene symbols using the tximport package with mapping provided by the biomaRt utility. […]

Test [4] relates to human T cells. The test is described as follows: Western blot of nuclear β-catenin, Lef1, Tcf7 in human T cells. The class given is cell-based. Here is the method:
(§3) Nuclear and cytoplasmic protein were isolated by lysis using Nuclear and Cytoplasmic Extraction Reagent with Protease&Phosphatase Inhibitor Cocktail (ThermoScientific). Protein concentration was quantified using […] (ThermoScientific) according to the manufacturer's instructions. 10 to 30 μg of total protein was separated on a Mini-PROTEAN TGX, Any kD™ gel, followed by transfer onto PVDF membrane (Bio-Rad). The membranes were blocked with 5% BSA in TBS buffer containing 0.5% Tween20. The membranes were then incubated overnight at 4° C. with the primary antibodies to β-catenin (BD Bioscience), p110δ, Tcf7 (Abcam), RORγt (Affymetrix) phospho-Akt, total-Akt, STAT-3, Histone-3, Lef1 (abcam), and GAPDH (Cell Signaling) at the concentration recommended by manufactures. Subsequently, membranes were washed and incubated for 1 h at room temperature with (HRP)-conjugated goat antibodies to mouse or rabbit IgG (Cell Signaling). For detection of protein, chemiluminescence method was performed using Western ECL Blotting Substrate (Bio-Rad) followed by X-ray film-based imaging method (ThermoScientific). Quantification of optical density performed using Fiji analysis software (NIH).

The subject of test [5] is ICOS-activated Th17 cells. Briefly: Cytokine production of ICOS-stimulated TRP-1 Th17 cells expanded with inhibitors (intracellular FACS). The class given is cell-based, mouse. Here is the method:
(§4) Expansion of Th17 cells with Wnt/β-catenin and PI3K inhibitors in vitro: TRP-1 splenocytes were activated with irradiated (10Gy) C57BL/6 splenocytes pulsed with TRP-1 peptide (1 μM) added at a 5:1 ratio in 24-well plates (1 mL media containing 1.5×10^6 cells/well). TRP-1 splenocytes were co-stimulated with soluble ICOS agonist (Clone 398.4A, BioLegend) and polarized toward Th17 phenotype as describe above. For in vitro expansion from day 0 of culture 10 μM Ly294002 (Cayman Chemical) or 10 μM CAL-101 (Selleckchem) and/or 60 μM indomethacin (Sigma-Aldrich) was added. Also dimethylosulfoxide 0.01% (Sigma-Aldrich) was added as a control. Th17 cultures were also supplemented with hrIL-2 (100 IU/mL) and rmIL-23 ([…]; R&D). Medium, including cytokines and inhibitors was refreshed every 2-3 days.
as §2

Test [6] deals with ICOS-activated Th17 cells. The test is described as follows: Memory and regulatory phenotype of ICOS-stimulated Th17 cells expanded with inhibitors (flow cytometry). Type of test: cell-based, mouse. Here is the method:
as §4
Surface staining of Th17 cells was performed with anti-CD4-APCCy7, anti-Vβ14-FITC (BD Biosciences) anti-CD62L-APC, anti-CD44-PerCPCy5.5, anti-CCR6-PE, anti-CD69-PECy7, anti-CCR7-PE, anti-CD27-PE, anti-CD28-PerCPCy5.5, anti-ICOS-PE and anti-CD25-PECy7/FITC (BioLegend) and viability stain (Invitrogen) on day 8. For all intracellular staining of cytokines (anti-IL-17 PerCPCy5.5, anti-IFN-γ-v450, anti-IL-2-FITC, anti-IL-21-APC, anti-IL-22-PE, anti-TNF-α-FITC; BioLegend) and transcription factors (anti-RORγt-APC, anti-cMaf-PerCPCy5.5, anti-STAT-3-PE, anti-FoxP3-FITC/PE, anti-T-bet-v450; eBiosciences), cells were stimulated for 4-5 h with 50 ng/mL PMA and 750 ng/mL ionomycin (Sigma-Aldrich). Additional antibodies used include: CD127-PECy7 clone A019D5, CD25-APCCy7 clone BC96, CD4-APCCy7 OKT4, CD45RO-APC clone UCHL1, CD62L-FITC clone DREG-56, CD8-PerCPCy5.5 clone SKI, TIM3-PE clone F38-2E2 (biolegend); CCR7-PECy7 clone CCR7, CD8-V450 clone RPA-T8, PD1-FITC clone M1H4, (BD Biosciences). […] Data were analyzed with FlowJo software (TreeStar). […]

Test [7] has as its system Wnt/β-catenin pathway. Briefly: Wnt/β-catenin pathway expression in Th17 cells (Western blot, real-time PCR). The settings on record: re-stimulation in vitro; compared to control Th17 cells. Type of test: cell-based, mouse. Here is the method: Total RNA isolation was performed using the Trizol method (Life Technologies) according to the manufacturer's procedure. RNA quantity and purity was assessed using a NanoDrop ND-1000. 1 μg total RNA was transcribed with Transcriptor First Strand cDNA Synthesis Kit (Roche). qReal-time PCR was performed on LightCycler480 machine following manufacturer's protocols (Roche). Probes utilized include Rorc, IL-17, Cmaf IL-21, Cpt-1a, Tcf-7, Lef-1, Cnnb1. All probes are commercially available (ABI). Relative gene expression was determined by the comparative CT method (45). β-actin was used as housekeeping gene.
as §3
A general note: A western blot detects proteins with antibodies after separation by electrophoresis.

Test [8] concerns ICOS-activated Th17 cells. Briefly: Transcription factor expression (RORγt, cMaf, STAT-3) in ICOS-activated Th17 cells. Type of test: cell-based, mouse. The following applies: day 8. Here is the method:
as §4
as §3, with “Subsequently, membranes were washed and incubated for 1 h at room temperature with (HRP)-conjugated goat antibodies to mouse or rabbit IgG (Cell Signaling). For detection of protein, chemiluminescence method was performed using Western ECL Blotting Substrate (Bio-Rad) followed by X-ray film-based imaging method (ThermoScientific).” left out
Surface staining of Th17 cells was performed with anti-CD4-APCCy7, anti-Vβ14-FITC (BD Biosciences) anti-CD62L-APC, anti-CD44-PerCPCy5.5, anti-CCR6-PE, anti-CD69-PECy7, anti-CCR7-PE, anti-CD27-PE, anti-CD28-PerCPCy5.5, anti-ICOS-PE and anti-CD25-PECy7/FITC (BioLegend) and viability stain (Invitrogen) on day 8. […] Data were analyzed with FlowJo software (TreeStar). […]

Setting [9] is: 8 days of expansion, CAL-101 10 μM, Indo 60 μM, Ly294002 10 μM, vs un-treated Th17 cells.

In the case of `O=c1[nH]c2ccccc2n1C1CCN(Cc2ccc(-c3nc4cc5[nH]cnc5cc4nc3-c3ccccc3)cc2)CC1` [AKTi], in test [1] (10 μM drug), the “logarithmic expansion of mouse pmel-1 CD8+ T cells” value is given as “neither 10 μM AKTi or 10 μM CAL-101 impaired”. In addition, the CD69 expression entry in test [1] (5 days of culture) is on record as “decreased”. Also, in test [1] (5 days of culture, vehicle 65%), the “cells expressing CD62L” value is “nearly all”. Also, in test [1] (in culture), the CD25 expression result was “slightly reduced” and the CD127 expression result is “substantially elevated”. In test [2], the CD25 expression entry was “did not impact” and the CD45RO levels entry is listed as “similar”. The “growth of human T cells” value in test [2] (10 μM drug, 8 days) is on record as “dramatically inhibited growth”. Besides, the CD62L expression result in test [2] (over vehicle) is recorded as “slightly increased”. Besides, in test [2] (post-activation, vs untreated T cells), the TIM3 expression result was “prevented the up-regulation”. Further, the “effector transcripts Fos, JunB, Gzmb, Ifng” value in test [3] was “down-regulated”. Besides, the “nuclear Lef1 protein” value in test [4] is “slightly higher, though not statistically significant”. Moreover, the “nuclear Tcf7 protein” value in test [4] (over vehicle) is given as “did not”.

Turning to `O=c1cc(N2CCOCC2)oc2c(-c3ccccc3)cccc12` [Ly294002, 2-(4-morpholinyl)-8-phenyl-4H-1-benzopyran-4-one], in test [5] (setting [9]), the IFN-γ production result is recorded as “suppress” and the IL-17A production entry is listed as “suppress”. Moreover, the “cytokine secretion pattern overall” value in test [5] (compared with the results for CAL-101 or Indo plus CAL-101) was “Similarly results were obtained”. The “FoxP3 and CD25 expression” value in test [6] (cultured 8 days and upon secondary stimulation in vitro) was “expressed more FoxP3 and CD25”. Moreover, the “central memory phenotype (CD44^highCD62L^high)” value in test [6] (day 8 in vitro) is “also supported generation of TCM17 cells”. In addition, the “Tcf7 protein level after re-stimulation” value in test [7] is “could not replace the CAL-101 effect on Tcf7 overexpression”.

In test [8] (control 62.9±4.8%), `CC[C@H](Nc1ncnc2[nH]cnc12)c1nc2cccc(F)c2c(=O)n1-c1ccccc1` [CAL-101] registered a cMaf expression of 42.5±3.9%. Further, the RORγt expression in test [8] (control 65.5±9.5%) is recorded as 21.9±8.1%. Further, the STAT-3 expression in test [8] (control approximately 83%) is reported as 13.8±5.2%. Besides, the “CD62L+ cells before transfer” value in test [1] (sort experiment, bulk vehicle 37%) turned out to be 97%.
